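How tested: cells in 96-well plates exposed to compound for 48 hours at five concentrations. Definition used: TGI = concentration required for complete inhibition of growth.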

Holding throughout (experiment): NCI-60 cell line screen, 48 h
The test system of test [1] is NCI-H460 lung.
The test system of test [2] is RPMI-8226 leukemia.
For test [3], the system named is OVCAR-3 ovarian.
The test system of test [4] is RXF 393 renal.
Test [5] relates to BT-549 breast.
Test [6] relates to UO-31 renal.
The subject of test [7] is LOX IMVI melanoma.
For test [8], the system named is SK-OV-3 ovarian.
Test [9] concerns PC-3 prostate.
The subject of test [10] is HT29 colon.

Take `OC(C1CCCCCCCCCC1)C(O)C1CCCCCCCCCC1` (stereo not given): the TGI in [1], in test [2], in test [3], in test [4], in test [5] and in test [6] was more than 100 µM each time. Further, the TGI in [7], in test [8], in test [9] and in test [10] was more than 100 µM each time.

Consider `CCOC(=O)C(NC(=O)CC)(Nc1ccc(S(=O)(=O)Nc2ccc(OC)nn2)cc1)C(F)(F)F` (stereo not given), for which the TGI in [1], in test [2], in test [3], in test [4], in [5] and in test [6] was more than 100 µM throughout. Also, the TGI in [7], in [8], in test [9] and in test [10] was more than 100 µM each time.

Take `CC1(C)CN=CC(C)(OCc2ccccc2)C(=O)NC(C)(C)CN=CC(C)(OCc2ccccc2)C(=O)N1` (stereo not given): the TGI in test [1], in test [2], in [3], in test [4], in test [5] and in [6] was more than 10 µM throughout. Also, the TGI in test [7], in [8], in test [9] and in test [10] was more than 10 µM throughout.

Take `O=C(/C=C/c1ccccc1)Oc1cccc(Br)c1`: the TGI in test [1] is more than 100 µM; in [2] it was 40.2 µM; in test [3] it was more than 100 µM; in test [4], more than 100 µM; in test [5], more than 100 µM; in test [6] it was more than 100 µM. Further, the TGI in test [7], in test [8], in [9] and in test [10] was more than 100 µM in each case.

As for `CC(=O)OCC1OC(SC2=NC(=O)/C(=C/c3ccccc3)S2)C(OC(C)=O)C(OC(C)=O)C1OC(C)=O` (stereo not given), the TGI in [1] was more than 100 µM; in test [2], 66.3 µM; in test [3], 44.4 µM; in [4] it was 67.6 µM; in test [5] it was 78.9 µM; in test [6] it was 52.8 µM. The TGI in [7] is 42.9 µM; in test [8], more than 100 µM; in test [9], more than 100 µM; in test [10], more than 100 µM.

Regarding `NC1=Nc2ccccc2Sc2nc3ccccc3n21`, the TGI in test [1] is more than 100 µM; in test [2] it was more than 100 µM; in test [3] it was more than 100 µM; in test [4] it was more than 100 µM; in test [5], more than 100 µM; in [6], 40.9 µM. Further, the TGI was more than 100 µM in [7], 77.9 µM in test [8], more than 100 µM in test [9] and 31.3 µM in test [10].

For the compound `CN(C)C=NCC(O)c1ccccc1` (stereo not given), the TGI in [1], in test [2], in test [3], in test [4], in [5] and in test [6] was more than 100 µM in each case. In addition, the TGI in [7], in test [8], in test [9] and in test [10] was more than 100 µM throughout.

For the compound `COc1ccc(Cn2c3ccc([N+](=O)[O-])cc3c(=O)n2Cc2ccccn2)cc1`, the TGI in [1], in test [2], in test [3], in test [4], in test [5] and in [6] was more than 100 µM in each case. Besides, the TGI in test [7], in test [8], in [9] and in test [10] was more than 100 µM in each case.

As to `CC(C)=CCC[C@@H](C)C1=CC(=O)C(C)=C(O)C1=O`, the TGI came out at 43.1 µM in test [1]; 5.64 µM in [2]; 15.8 µM in [3]; 5.92 µM in [4]; 18.1 µM in test [5]; 13.5 µM in [6]. The TGI in test [7] is 11.9 µM; in [8], 31.8 µM; in test [9], 18.2 µM; in [10], 22.5 µM.

On to `O=C1C=C(O)c2c(O)ccc(O)c2C1=O`, for which the TGI in test [1], in test [2], in test [3], in test [4], in test [5] and in [6] was more than 100 µM in each case. Besides, the TGI in test [7], in [8], in test [9] and in test [10] was more than 100 µM throughout.

`Nc1ccccc1OCCCOc1ccccc1N`: the TGI in test [1], in [2], in test [3], in test [4], in [5] and in test [6] was more than 100 µM each time. For the same compound, the TGI in test [7], in test [8], in test [9] and in [10] was more than 100 µM in each case.

Turning to `CN(C)CC1CCCc2ccccc2C1=O` (stereo not given), the TGI was 39.9 µM in [1]; 0.21 µM in test [2]; 3.57 µM in [3]; 11.7 µM in test [4]; 9.8 µM in [5]; 3.45 µM in [6]. For the same compound, the TGI in test [7] is 4.49 µM; in [8], 32.7 µM; in test [9], 3 µM; in test [10], 3.38 µM.

Regarding `CC(C)C1=C(Cc2ccccc2)C(=O)O/C1=C\c1ccc(O)c(Cl)c1`, the TGI stood at 31.1 µM in test [1]; 28.1 µM in [2]; 28 µM in test [3]; 31.2 µM in [4]; 36.7 µM in [5]; 27.5 µM in [6]. In addition, the TGI was 32.3 µM in test [7], 33.7 µM in [8], 31.7 µM in test [9] and 32.8 µM in test [10].

As for `CCN(CC)C1Oc2cc3c(cc2C(c2cccc(OC)c2O)C1C)OCO3` (stereo not given), the TGI in [1] is 21.9 µM; in test [2], 13.6 µM; in test [3] it was 5.5 µM; in [4] it was 21.2 µM; in test [5], more than 44.9 µM; in [6] it was 49.5 µM. In addition, the TGI in test [7] is 22.2 µM; in test [8] it was more than 61.3 µM; in test [9] it was more than 35.8 µM; in test [10], 27.5 µM.

As to `COc1cc2[nH]c(=O)c3cc(C)cc4c(Cl)nc(c1OC)c2c43`, the TGI in test [1] is more than 100 µM; in [2], more than 100 µM; in test [3], more than 100 µM; in test [4], 58.1 µM; in [5] it was more than 100 µM; in test [6], more than 100 µM. The TGI in test [7], in test [8], in test [9] and in test [10] was more than 100 µM in each case.

As for `N#Cc1ccc(C2Oc3ccc(Cl)cc3C=C2[N+](=O)[O-])cc1` (stereo not given), the TGI in test [1] amounted to 5.18 µM; in test [2] it was 1.25 µM; in test [3], 3.04 µM; in test [4], 9.86 µM; in [5], 1.13 µM; in test [6] it was 2.99 µM. For the same compound, the TGI was determined as 3.02 µM in test [7], 5.57 µM in test [8], 3.37 µM in [9] and 7.89 µM in test [10].

In the case of `CCOC(=O)C1=C(c2ccccc2)C12N(Cc1ccccc1)C(=O)C2(c1ccccc1)c1ccccc1` (stereo not given), the TGI in test [1], in test [2], in test [3], in test [4], in test [5] and in [6] was more than 100 µM throughout. Further, the TGI in test [7] is more than 100 µM; in test [8] it was more than 100 µM; in test [9] it was 75.5 µM; in [10], more than 100 µM.

Regarding `CC(=O)c1ccc2c3c1O[C@H]1c4[nH]c5ccccc5c4C[C@@]4(O)[C@@H](C2)N(CC2CC2)CC[C@]314`, the TGI in test [1] stood at 17.7 µM; in test [2] it was 45.1 µM; in test [3], 23.4 µM; in test [4], 27.3 µM; in [5], 29.6 µM; in [6], 28.7 µM. Moreover, the TGI in test [7] is 33 µM; in test [8], 35.9 µM; in test [9], 21.7 µM; in test [10], 20 µM.

As for `CCN(CC)c1ccc2cc(C(N)=O)c(=Nc3ccc(F)cc3)oc2c1`, the TGI was more than 100 µM in [1]; more than 100 µM in test [2]; more than 100 µM in test [3]; 92 µM in [4]; more than 100 µM in test [5]; more than 100 µM in [6]. The TGI in test [7], in [8], in [9] and in [10] was more than 100 µM throughout.
